We go through 3 compounds from US5712160A, “Method of stimulating growth using neurotrophic peptides” (Board of Regents, The University of Texas System, priority 1995, dated 1998).

Values joined by “and” are separate entries in the source; they are usually repeats but may differ in a detail not shown here. Identical values can stand only once. “Also recorded” adds a separate entry of the source. Residues, ends and D or L forms follow the SMILES beside them. No end group written: not given here.

As usually defined, the Kd is the free concentration of one partner at which half of the binding sites on the other are occupied at equilibrium, for simple one-to-one binding.

For experiment [1], the system named is PC12 cells transplanted into rat cortex. Nature of the experiment: Transplant of pretreated PC12 cells into lesioned rat brain, NGF receptor immunohistochemistry (Ig192). Type of experiment: in vivo. The settings on record: cells treated in vitro two weeks; rat cortex stab wound; two weeks after transplant. Here is the method: PC12 cells were treated with nerve growth factor (NGF) or peptide P4 in vitro for two weeks. The cells were then transplanted into a rat cortex at the site of the stab wound or 6-hydroxy dopamine-induced lesion. Two weeks after the transplant of the P12 cells, the animal brain was processed for immunohistochemistry by staining with monoclonal antibody to NGF receptor (Ig192). […] The stab-wound lesions carried out by inserting a 24 gauge needle into a stereotoxicly fixed animal so as to lesion motor cortex. Cells were then deposited with the same needle into the wound cavity.
The 6-hydroxydopamine lesions were carried out by injecting […] stereotoxicly into striatum with a needle two weeks prior to transplantation and/or treatment of animals.

The subject of experiment [2] is NGF receptor on PC12 cells.
Experimental: Competitive binding assay. The following method of binding assay was carried out: precoat the 24-well plates were precoated with cytochrome C and the PC12 cells plated overnight as mentioned above. The ^125 I labeled NGF was added at 5 ng/ml in the presence of different doses of peptide from 4 ug/ml to 50 ug/ml. […] These peptides are very acidic and NGF is very basic.
In another experiment 24-well plates were precoated with poly-D-Lys at 0.06 mg/ml for 15 minutes and PC12 cells plated overnight at 1×10^5 cells/well in RPMI 1640 with serum conditioned media. The ^125 I-NGF was added at, e.g., 5 ng/ml, in the presence of varying amounts of peptide from 0.01 ug/ml to 50 ug/ml in Hepes buffer with 1 mg/ml BSA. The cells were incubated at rt. for 1 hour then washed with PBS three times and lysed with 0.5N NaOH. The radioactivity was then measured. Protein concentrations of the aliquots were determined by Lowry assay.
The next experiment has as its system PC12 cells. Type of experiment: cell-based, rat. Here is the method:
Cell Culture. Stock cultures of PC12 cells are maintained in a medium consisting of RPMI 1640 supplemented with (v/v) 5% fetal calf serum and 5% horse serum ("complete medium"). At alternate feedings, media containing 1% PSN antibiotic mixture is used, consisting of 5 mg penicillin +5 mg streptomycin +10 mg neomycin/ml. Cells are grown in a humidified atmosphere containing 5% CO2. Cells are split once weekly in a 1:12 ratio by vigorous shaking and trituration. For experiments, PC12 cells are dislodged by shaking, centrifuged at 800×g, diluted in Puck's saline, counted in a hemocytometer, and plated on poly-D-lysine coated polystyrene tissue culture pates. For experiments to be performed in defined, serum-free medium, a modification of the N1 medium of Bottenstein et al. is used consisting of RPMI 1640 supplemented with insulin 5 ug/ml, transferrin 5 ug/ml, 20 nM progesterone, 100 μM putrescine, and 30 nM sodium selenite. Cells are plated in complete medium and allowed to attach overnight before washing twice with serum-free RPMI and addition of N1 medium. For experiments. examining effects of NGF on cell survival following serum deprivation, cells are plated in complete medium and allowed to attach overnight. Cells are then washed once with RPMI containing sheep anti-mouse beta-NGF to remove any residual NGF from serum. After washing once in RPMI, cells receive varying doses of NGF in RPMI. Media is changed on the third day of serum deprivation. On the fourth day, viability is assessed by ^35 S-methionine incorporation into trichloroacetic acid precipitable proteins. The effects of NGF on the response of PC12 cells to peptides is also examined by reduction of the dye 3, (4,5-dimethylthiazol-2-yl)-2,5-diphenyl-tetrazolium (MTT). For experiments using MTT, cells (1×10^4) are plated on poly-D-lysine coated 6 mm wells (96 well plates). Cells are allowed to attach overnight before addition of NGF and/or peptide. After 24 hr, media is removed and replaced with RPMI 1640 medium without serum. Following a 24 hour recovery period, each well is incubated with MTT for 4 hours at 37° C. Formaxan crystals are then solubilized in isopropanol containing 0.04N HCl and plates read on an ELISA reader using test and reference wavelengths of 570 and 630 nm, respectively. All statistics are performed by computer-assisted methods using the Number Cruncher for Statistical Sciences (NCSS) package. […]
The survival of PC12 cells was measured as a function of the amount of peptide P4.
Cells were plated out as mentioned above in RPMI 1640 without serum but in the presence of a fixed amount of NGF with varying amounts of peptide from 0.1 to 100 ug/ml (day one). […] The incorporation of ^35 S-Met into protein was determined by TCA precipitation and protein assay.

In the next experiment the target is labelled NGF (Homo sapiens, UniProt P01138). As to the kind of experiment: Binding of labelled NGF to peptide fixed on a membrane disc/filter. Here is the method:
Membrane discs were placed into wells of 96 well plate. Peptide (for example 265 ng/ul) was spotted on each disc. Series dilutions of peptide were used to assure the binding. The disc was dried at 37° C. (or 40° C.) for 1 hour. […] 4% BSA TBS was added to each well. An amount of labelled NGF was added to each well, followed by incubation in 4% BSA TBS. Each disc was washed 4 times with 200 ul TBS (5 minute interval). The discs were transferred to counting vial and counted.
Peptide P4 was attached to a solid matrix at various concentrations and the binding of labeled NGF measured to these various concentrations of bound P4. It is noted that an apparent maximal binding was achieved when about 3 μg of peptide P4 were bound. FIG. 4 illustrates how differing amounts of peptide bound differing amounts of labelled NGF. Here the peptide is fixed to a filter in varying amounts, then exposed to constant amounts of labelled NGF and washed extensively to displace unspecifically bound radioactivity. […] The specific augmentation of NGF effects may thus be understood when small amounts of peptide are added.

The next experiment addresses NGFR-I. Particulars: high affinity, low capacity binding site; read-out: equilibrium dissociation constant (Kd) of NGF binding; cited from earlier work.
A further experiment has as its target T1, NGFR-II (Homo sapiens, UniProt P08138).
T1 sequence (P08138 29-427): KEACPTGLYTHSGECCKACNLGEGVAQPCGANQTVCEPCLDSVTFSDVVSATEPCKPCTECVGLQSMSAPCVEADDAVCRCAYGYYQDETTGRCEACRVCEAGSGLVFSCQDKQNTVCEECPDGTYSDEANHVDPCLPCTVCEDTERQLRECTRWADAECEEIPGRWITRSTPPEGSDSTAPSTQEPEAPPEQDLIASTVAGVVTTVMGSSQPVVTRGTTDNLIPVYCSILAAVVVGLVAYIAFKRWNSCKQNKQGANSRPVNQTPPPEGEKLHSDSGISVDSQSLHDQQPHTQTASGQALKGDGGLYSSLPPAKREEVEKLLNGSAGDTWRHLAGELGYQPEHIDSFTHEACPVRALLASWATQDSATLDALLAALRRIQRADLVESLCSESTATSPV
The settings on record: low affinity, high capacity binding site; read-out: equilibrium dissociation constant (Kd) of NGF binding; cited from earlier work.

Sequence of labelled NGF (P01138 122-241): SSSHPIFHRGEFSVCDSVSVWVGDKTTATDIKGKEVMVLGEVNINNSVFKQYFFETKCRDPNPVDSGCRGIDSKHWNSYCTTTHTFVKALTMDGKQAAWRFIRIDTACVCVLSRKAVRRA

Regarding `CC(C)[C@H](NC(=O)[C@@H](NC(=O)[C@H](CC(N)=O)NC(=O)[C@H](CCC(N)=O)NC(=O)[C@H](CCCCN)NC(=O)[C@H](CC(=O)O)NC(=O)[C@H](CCC(N)=O)NC(=O)[C@@H](N)CS)[C@@H](C)O)C(=O)N[C@@H](CS)C(=O)N[C@@H](CCC(=O)O)C(=O)N[C@@H](CCC(=O)O)C(=O)N[C@@H](CS)C(=O)N1CCC[C@H]1C(=O)N[C@@H](CCC(=O)O)C(=O)O` [P4, Cys--Gln--Asp--Lys--Gln--Asn--Thr--Val--Cys--Glu--Glu--Cys--Pro--Glu--OH] (H-CQDKQNTVCEECPE-OH; N-terminus assumed), the “NGF receptor immunostaining of transplanted PC12 cells (FIG. 8B vs 8A)” value in experiment [1] is “significantly greater NGF receptor; also recorded: denser accumulation of NGF receptor sites”. Moreover, in experiment [2] (lower peptide concentrations measured (1.3 μg)), the “binding of labeled NGF to PC12 cells (FIG. 5)” value is reported as “amplified”. In addition, the “displacement of bound labeled NGF from PC12 cells (FIG. 5)” value in experiment [2] (peptide at concentrations higher than about 1.5 μg) is “effective in displacing bound labeled NGF”. The “increase in binding of 125I-NGF to its receptor” value in experiment [2] (peptide within 0.01-0.1 ug/ml range, 125I-NGF 5 ng/ml, PC12 cells, 1 hour rt) turned out to be 50%. In the experiment on PC12 cells (NGF concentrations of 0.1 to 10 ng/ml), the “PC12 cell protein synthesis activity (FIG. 6B)” value is “trophic effects”. Also, the “peptide concentration at maximal PC12 cell survival (FIG. 3)” value in the experiment with PC12 cells (in the presence of 2 ng/ml NGF) stood at 5 µg. Besides, the “increase in protein synthesized (35S-Met incorporation)” value with PC12 cells (peptide 0.1 ug/ml, serum-free, fixed amount of NGF, day four) came out at 20%. The “amount of bound peptide at apparent maximal binding of labeled NGF (FIG. 4)” value on labelled NGF (peptide fixed to filter, constant amount of labelled NGF) was “about 3 μg”. In addition, at labelled NGF (varying amounts of peptide on filter, washed extensively), the “binding of labelled NGF to fixed peptide” value is recorded as “saturation indicative of specific binding of NGF to peptide”.
Consider “NGF: Nerve growth factor, a neurotrophic protein; only the β-NGF subunit has nerve growth promoting activity”, for which the Kd was ~10 pM and 10 pM at NGFR-I; ~1000 pM and 1000 pM with NGFR-II. In addition, in experiment [2] (10 micrograms unlabeled NGF or peptide, various concentrations of free labeled NGF), the “displacement of labeled NGF from PC12 cells (FIG. 1)” value is given as “more effective in displacing labeled NGF than most of the synthetic peptides”.
On to “Tyr--Cys--Gln--Asp--Lys--Gln--Asn--Thr--Val--Cys--Glu--Glu--Cys--Pro--Glu--OH (YCQDKQNTVCEECPE-OH; cysteine pairing not given here) [P5]”, for which the “PC12 cell survival during serum deprivation (FIG. 6)” value in the experiment on PC12 cells (in the presence of 0.5 ng/ml NGF) is recorded as “enhancement of cell survival”.
